According to paper PMC12090182, “Repurposing of the RIPK1-Selective Benzo[1,4]oxazepin-4-one Scaffold for the Development of a Type III LIMK1/2 Inhibitor” (ACS Chemical Biology, 2025):

Legend:
Experiment in all cases: biochemical
Type in all cases: binding
[1] = biological target: 468 kinases including some pathogenic mutants (Homo sapiens, UniProt O00141); details: SGK (Entrez SGK1), 1000 nM; read-out: Percent Control
[2] = biological target: 468 kinases including some pathogenic mutants (Homo sapiens, UniProt O15146); details: MUSK (Entrez MUSK), 100 nM; read-out: Percent Control
[3] = biological target: 468 kinases including some pathogenic mutants (Homo sapiens, UniProt O75716); details: STK16 (Entrez STK16), 1000 nM; read-out: Percent Control
468 kinases including some pathogenic mutants (Homo sapiens, UniProt O75716), sequence (O75716 whole entry, change not shown): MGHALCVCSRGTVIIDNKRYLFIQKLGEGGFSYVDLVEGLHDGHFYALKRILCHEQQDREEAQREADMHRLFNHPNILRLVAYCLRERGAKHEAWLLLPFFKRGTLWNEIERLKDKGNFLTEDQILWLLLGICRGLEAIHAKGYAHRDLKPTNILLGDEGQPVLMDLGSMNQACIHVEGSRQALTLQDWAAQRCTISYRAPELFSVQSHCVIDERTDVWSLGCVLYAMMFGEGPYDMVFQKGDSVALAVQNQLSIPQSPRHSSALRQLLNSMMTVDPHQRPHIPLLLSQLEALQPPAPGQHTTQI

[4] = biological target: 468 kinases including some pathogenic mutants (Homo sapiens, UniProt P06241); details: FYN (Entrez FYN), 100 nM; read-out: Percent Control
[5] = biological target: 468 kinases including some pathogenic mutants (Homo sapiens, UniProt P07949); details: RET (Entrez RET), 1000 nM; read-out: Percent Control
[6] = biological target: 468 kinases including some pathogenic mutants (Homo sapiens, UniProt P10721, D816H); details: read-out: Percent Control
[7] = biological target: 468 kinases including some pathogenic mutants (Homo sapiens, UniProt P10721, T670I/V559D); details: read-out: Percent Control
[8] = biological target: 468 kinases including some pathogenic mutants (Homo sapiens, UniProt P15735); details: PHKG2 (Entrez PHKG2), 100 nM; read-out: Percent Control
[9] = biological target: 468 kinases including some pathogenic mutants (Homo sapiens, UniProt P19525); details: PRKR (Entrez EIF2AK2), 1000 nM; read-out: Percent Control
[10] = biological target: 468 kinases including some pathogenic mutants (Homo sapiens, UniProt P21127); details: CDC2L1 (Entrez CDK11B), 100 nM; read-out: Percent Control
[11] = biological target: 468 kinases including some pathogenic mutants (Homo sapiens, UniProt P29322); details: EPHA8 (Entrez EPHA8), 100 nM; read-out: Percent Control
[12] = biological target: 468 kinases including some pathogenic mutants (Homo sapiens, UniProt P43405); details: SYK (Entrez SYK), 100 nM; read-out: Percent Control
[13] = biological target: 468 kinases including some pathogenic mutants (Homo sapiens, UniProt P45983); details: JNK1 (Entrez MAPK8), 1000 nM; read-out: Percent Control
[14] = biological target: 468 kinases including some pathogenic mutants (Homo sapiens, UniProt P48730); details: CSNK1D (Entrez CSNK1D), 100 nM; read-out: Percent Control
468 kinases including some pathogenic mutants (Homo sapiens, UniProt P48730), sequence (P48730 whole entry, change not shown): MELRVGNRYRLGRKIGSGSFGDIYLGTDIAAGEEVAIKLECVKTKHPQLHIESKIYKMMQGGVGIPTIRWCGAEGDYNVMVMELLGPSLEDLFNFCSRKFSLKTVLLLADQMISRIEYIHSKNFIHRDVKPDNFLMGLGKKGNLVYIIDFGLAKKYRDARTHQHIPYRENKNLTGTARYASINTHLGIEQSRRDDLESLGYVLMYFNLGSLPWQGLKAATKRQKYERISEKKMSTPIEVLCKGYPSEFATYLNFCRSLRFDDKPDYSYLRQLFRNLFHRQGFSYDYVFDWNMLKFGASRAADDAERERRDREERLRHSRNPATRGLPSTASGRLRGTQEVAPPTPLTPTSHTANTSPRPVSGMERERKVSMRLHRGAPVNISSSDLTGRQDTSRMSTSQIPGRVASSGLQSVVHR

[15] = biological target: 468 kinases including some pathogenic mutants (Homo sapiens, UniProt Q04771); details: ACVR1 (Entrez ACVR1), 100 nM; read-out: Percent Control
[16] = biological target: 468 kinases including some pathogenic mutants (Homo sapiens, UniProt Q15831); details: LKB1 (Entrez STK11), 100 nM; read-out: Percent Control
[17] = biological target: 468 kinases including some pathogenic mutants (Homo sapiens, UniProt Q6ZN16); details: MAP3K15 (Entrez MAP3K15), 1000 nM; read-out: Percent Control
[18] = biological target: 468 kinases including some pathogenic mutants (Homo sapiens, UniProt Q86Z02); details: HIPK1 (Entrez HIPK1), 100 nM; read-out: Percent Control
468 kinases including some pathogenic mutants (Homo sapiens, UniProt Q86Z02), sequence (Q86Z02 whole entry, change not shown): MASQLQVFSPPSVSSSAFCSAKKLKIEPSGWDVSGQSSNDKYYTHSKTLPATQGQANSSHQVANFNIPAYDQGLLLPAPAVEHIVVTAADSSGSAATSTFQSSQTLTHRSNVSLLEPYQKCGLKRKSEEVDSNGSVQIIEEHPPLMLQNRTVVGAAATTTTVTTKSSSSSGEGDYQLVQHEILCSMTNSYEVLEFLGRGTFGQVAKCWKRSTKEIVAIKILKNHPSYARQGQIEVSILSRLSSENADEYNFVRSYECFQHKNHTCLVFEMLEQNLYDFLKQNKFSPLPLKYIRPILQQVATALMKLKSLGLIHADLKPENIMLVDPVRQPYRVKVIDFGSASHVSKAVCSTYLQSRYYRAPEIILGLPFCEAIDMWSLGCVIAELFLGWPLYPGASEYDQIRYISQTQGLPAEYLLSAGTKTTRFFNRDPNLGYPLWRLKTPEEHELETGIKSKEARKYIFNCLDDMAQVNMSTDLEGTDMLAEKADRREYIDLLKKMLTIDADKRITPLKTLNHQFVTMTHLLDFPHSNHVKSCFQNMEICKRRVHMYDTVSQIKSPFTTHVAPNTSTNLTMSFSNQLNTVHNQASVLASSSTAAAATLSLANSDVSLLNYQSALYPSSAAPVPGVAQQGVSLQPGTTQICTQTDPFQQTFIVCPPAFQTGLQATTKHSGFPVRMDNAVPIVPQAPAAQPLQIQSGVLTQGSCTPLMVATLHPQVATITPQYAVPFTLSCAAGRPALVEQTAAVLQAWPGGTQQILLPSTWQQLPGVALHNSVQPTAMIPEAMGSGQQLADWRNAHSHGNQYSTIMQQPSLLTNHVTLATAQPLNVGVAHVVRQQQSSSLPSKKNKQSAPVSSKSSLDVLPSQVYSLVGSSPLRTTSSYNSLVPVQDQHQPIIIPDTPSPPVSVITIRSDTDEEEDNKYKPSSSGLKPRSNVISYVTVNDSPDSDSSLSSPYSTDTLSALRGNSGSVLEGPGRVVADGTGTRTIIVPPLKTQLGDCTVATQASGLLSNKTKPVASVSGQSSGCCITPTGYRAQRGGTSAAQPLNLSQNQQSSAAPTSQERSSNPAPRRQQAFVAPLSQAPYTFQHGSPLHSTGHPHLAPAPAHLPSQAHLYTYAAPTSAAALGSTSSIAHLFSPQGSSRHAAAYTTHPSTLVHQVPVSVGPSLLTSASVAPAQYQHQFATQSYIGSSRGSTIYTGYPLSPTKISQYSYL

[19] = biological target: 468 kinases including some pathogenic mutants (Homo sapiens, UniProt Q8IVH8); details: MAP4K3 (Entrez MAP4K3), 100 nM; read-out: Percent Control
[20] = biological target: 468 kinases including some pathogenic mutants (Homo sapiens, UniProt Q8NE63); details: HIPK4 (Entrez HIPK4), 100 nM; read-out: Percent Control
468 kinases including some pathogenic mutants (Homo sapiens, UniProt Q8NE63), sequence (Q8NE63 whole entry, change not shown): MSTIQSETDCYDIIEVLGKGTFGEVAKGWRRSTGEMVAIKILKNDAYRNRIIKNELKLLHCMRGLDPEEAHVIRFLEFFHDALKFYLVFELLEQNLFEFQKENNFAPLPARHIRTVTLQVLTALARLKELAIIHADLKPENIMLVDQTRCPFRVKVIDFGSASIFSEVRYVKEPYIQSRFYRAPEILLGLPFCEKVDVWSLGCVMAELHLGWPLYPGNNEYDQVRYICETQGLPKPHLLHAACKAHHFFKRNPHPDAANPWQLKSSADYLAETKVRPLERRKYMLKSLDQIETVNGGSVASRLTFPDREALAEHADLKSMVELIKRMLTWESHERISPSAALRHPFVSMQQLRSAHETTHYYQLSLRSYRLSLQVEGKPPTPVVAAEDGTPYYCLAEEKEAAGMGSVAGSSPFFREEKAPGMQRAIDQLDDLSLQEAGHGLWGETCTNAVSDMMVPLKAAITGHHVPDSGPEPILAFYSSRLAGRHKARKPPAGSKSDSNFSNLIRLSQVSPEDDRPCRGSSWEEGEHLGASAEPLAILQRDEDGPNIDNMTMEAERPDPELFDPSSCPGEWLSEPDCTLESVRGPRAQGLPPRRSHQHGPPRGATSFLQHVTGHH

[21] = biological target: 468 kinases including some pathogenic mutants (Homo sapiens, UniProt Q8WU08); details: YANK1 (Entrez STK32A), 100 nM; read-out: Percent Control
[22] = biological target: 468 kinases including some pathogenic mutants (Homo sapiens, UniProt Q96BR1); details: SGK3 (Entrez SGK3), 100 nM; read-out: Percent Control
[23] = biological target: 468 kinases including some pathogenic mutants (Homo sapiens, UniProt Q99755); details: PIP5K1A (Entrez PIP5K1A), 100 nM; read-out: Percent Control
[24] = biological target: 468 kinases including some pathogenic mutants (Homo sapiens, UniProt Q9BQI3); details: EIF2AK1 (Entrez EIF2AK1), 100 nM; read-out: Percent Control
[25] = biological target: 468 kinases including some pathogenic mutants (Homo sapiens, UniProt Q9BX84); details: TRPM6 (Entrez TRPM6), 1000 nM; read-out: Percent Control
[26] = biological target: 468 kinases including some pathogenic mutants (Homo sapiens, UniProt Q9H4A3); details: WNK1 (Entrez WNK1), 1000 nM; read-out: Percent Control
468 kinases including some pathogenic mutants (Homo sapiens, UniProt Q9H4A3), sequence (Q9H4A3 whole entry, change not shown): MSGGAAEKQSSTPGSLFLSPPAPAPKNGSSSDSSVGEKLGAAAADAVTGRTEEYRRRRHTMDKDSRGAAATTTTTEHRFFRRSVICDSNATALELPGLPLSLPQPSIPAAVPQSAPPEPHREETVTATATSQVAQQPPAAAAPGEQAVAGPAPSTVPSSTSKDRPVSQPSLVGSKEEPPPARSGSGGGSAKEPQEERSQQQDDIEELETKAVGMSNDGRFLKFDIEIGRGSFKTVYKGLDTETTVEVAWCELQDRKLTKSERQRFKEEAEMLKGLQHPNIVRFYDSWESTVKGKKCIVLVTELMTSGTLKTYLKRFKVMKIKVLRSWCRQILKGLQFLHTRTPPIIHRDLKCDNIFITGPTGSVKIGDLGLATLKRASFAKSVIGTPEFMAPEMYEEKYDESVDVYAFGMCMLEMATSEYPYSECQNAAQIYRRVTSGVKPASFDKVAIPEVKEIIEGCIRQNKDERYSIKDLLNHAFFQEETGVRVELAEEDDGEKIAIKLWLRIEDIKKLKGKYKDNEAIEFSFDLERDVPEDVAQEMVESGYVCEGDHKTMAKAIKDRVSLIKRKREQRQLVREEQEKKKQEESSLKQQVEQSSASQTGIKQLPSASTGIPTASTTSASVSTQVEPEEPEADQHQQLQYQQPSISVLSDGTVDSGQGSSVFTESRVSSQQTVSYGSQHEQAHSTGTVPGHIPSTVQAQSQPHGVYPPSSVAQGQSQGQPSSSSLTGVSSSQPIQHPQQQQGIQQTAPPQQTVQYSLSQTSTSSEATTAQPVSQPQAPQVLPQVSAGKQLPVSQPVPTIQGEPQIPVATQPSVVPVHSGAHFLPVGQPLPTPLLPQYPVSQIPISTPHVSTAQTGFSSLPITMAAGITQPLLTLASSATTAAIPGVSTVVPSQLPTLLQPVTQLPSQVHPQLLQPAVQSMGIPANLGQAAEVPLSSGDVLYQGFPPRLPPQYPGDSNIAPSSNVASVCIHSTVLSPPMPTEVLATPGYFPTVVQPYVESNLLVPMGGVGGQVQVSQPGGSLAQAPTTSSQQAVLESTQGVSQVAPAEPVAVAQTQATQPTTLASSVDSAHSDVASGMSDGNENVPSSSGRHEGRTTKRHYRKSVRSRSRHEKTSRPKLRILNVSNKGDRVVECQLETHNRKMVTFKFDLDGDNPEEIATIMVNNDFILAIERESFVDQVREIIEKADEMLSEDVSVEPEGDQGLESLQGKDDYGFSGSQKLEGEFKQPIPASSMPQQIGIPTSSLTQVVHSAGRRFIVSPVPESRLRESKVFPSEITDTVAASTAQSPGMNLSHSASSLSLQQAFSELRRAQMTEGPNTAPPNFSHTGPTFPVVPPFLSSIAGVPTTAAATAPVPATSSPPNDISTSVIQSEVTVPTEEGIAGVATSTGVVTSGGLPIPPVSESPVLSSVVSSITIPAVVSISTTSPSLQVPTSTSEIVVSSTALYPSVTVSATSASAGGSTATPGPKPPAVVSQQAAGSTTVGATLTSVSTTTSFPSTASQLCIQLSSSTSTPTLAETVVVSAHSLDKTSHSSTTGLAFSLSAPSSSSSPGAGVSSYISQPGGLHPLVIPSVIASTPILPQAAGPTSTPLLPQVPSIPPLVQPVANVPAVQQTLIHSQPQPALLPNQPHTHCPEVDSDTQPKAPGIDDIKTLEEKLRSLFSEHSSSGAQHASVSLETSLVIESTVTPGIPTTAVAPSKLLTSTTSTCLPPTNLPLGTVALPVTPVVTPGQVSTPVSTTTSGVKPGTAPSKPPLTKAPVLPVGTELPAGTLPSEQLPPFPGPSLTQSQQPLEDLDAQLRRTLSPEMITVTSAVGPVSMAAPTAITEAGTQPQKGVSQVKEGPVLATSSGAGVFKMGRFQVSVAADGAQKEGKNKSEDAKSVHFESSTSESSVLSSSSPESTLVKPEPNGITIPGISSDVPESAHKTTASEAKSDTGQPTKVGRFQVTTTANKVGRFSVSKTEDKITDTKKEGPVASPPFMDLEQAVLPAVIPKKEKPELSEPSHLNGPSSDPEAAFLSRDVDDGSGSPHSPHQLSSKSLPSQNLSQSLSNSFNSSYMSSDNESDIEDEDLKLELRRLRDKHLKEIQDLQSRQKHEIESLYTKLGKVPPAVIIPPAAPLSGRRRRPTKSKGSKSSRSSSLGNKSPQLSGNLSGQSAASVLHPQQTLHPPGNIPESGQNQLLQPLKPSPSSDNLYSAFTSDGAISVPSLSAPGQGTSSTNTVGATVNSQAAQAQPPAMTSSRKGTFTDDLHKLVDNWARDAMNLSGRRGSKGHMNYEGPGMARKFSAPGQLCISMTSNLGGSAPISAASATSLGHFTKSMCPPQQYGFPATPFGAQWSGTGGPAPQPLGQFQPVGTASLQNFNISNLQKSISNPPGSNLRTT

[27] = biological target: 468 kinases including some pathogenic mutants (Homo sapiens, UniProt Q9UQB9); details: AURKC (Entrez AURKC), 100 nM; read-out: Percent Control
[28] = biological target: 468 kinases including some pathogenic mutants (Homo sapiens, UniProt Q9UQM7); details: CAMK2A (Entrez CAMK2A), 100 nM; read-out: Percent Control

CN1C(=O)[C@@H](N2CCc3c(nn(Cc4ccccc4)c3C(N)=O)C2=O)COc2cc(Cl)ccc21 [Compound 10, (S)-2-benzyl-6-(8-chloro-5-methyl-4-oxo-2,3,4,5-tetrahydrobenzo[b][1,4]oxazepin-3-yl)-7-oxo-4,5,6,7-tetrahydro-2H-pyrazolo[3,4-c]pyridine-3-carboxamide] gave a remaining activity at 1 µM [1] of 100%, a remaining activity at 0.1 µM [2] of 94% and a remaining activity at 1 µM [3] of 100%. The remaining activity at 0.1 µM [4] was 71%, the remaining activity at 1 µM [5] was 100% and the remaining activity at 0.1 µM [6] was 100%. The remaining activity at 1 µM [7] was 100%, the remaining activity at 0.1 µM [8] was 62% and the remaining activity at 1 µM [9] was 100%. For the same compound, the remaining activity at 0.1 µM [10] was 88%, the remaining activity at 0.1 µM [11] was 87% and the remaining activity at 0.1 µM [12] was 100%. It also gave a remaining activity at 1 µM [13] of 100%, a remaining activity at 0.1 µM [14] of 79% and a remaining activity at 0.1 µM [15] of 88%. For the same compound, the remaining activity at 0.1 µM [16] was 97%, the remaining activity at 1 µM [17] was 100% and the remaining activity at 0.1 µM [18] was 73%. It also gave a remaining activity at 0.1 µM [19] of 83%, a remaining activity at 0.1 µM [20] of 73% and a remaining activity at 0.1 µM [21] of 89%. It also gave a remaining activity at 0.1 µM [22] of 90%, a remaining activity at 0.1 µM [23] of 100% and a remaining activity at 0.1 µM [24] of 100%. The remaining activity at 1 µM [25] was 100%, the remaining activity at 1 µM [26] was 100% and the remaining activity at 0.1 µM [27] was 67%. It also gave a remaining activity at 0.1 µM [28] of 76%.
